Data as given in patent US11034675B2, “Solid forms of Selinexor and process for their preparation” (DR. REDDY'S LABORATORIES LIMITED, priority 2016, dated 2021).

What was measured:
[1] = stability of amorphous form under hygroscopic conditions (higher relative humidity); format: physicochemical; details: higher relative humidity conditions of more than 60% RH
Excerpt: (§1) The present application provides a stable amorphous form of Selinexor suitable for powder handling and downstream processes. […] In an embodiment, the present application provides a stable amorphous form of Selinexor with less than 5% of crystallinity, preferably with less than 1% crystallinity and more preferably devoid of crystallinity as per X-ray diffraction analysis.

[2] = stability of amorphous form under mechanical stress (grinding, milling); format: physicochemical; details: mechanical stress such as grinding and milling
Excerpt: as §1

For O=C(/C=C\n1cnc(-c2cc(C(F)(F)F)cc(C(F)(F)F)c2)n1)NNc1cnccn1 [Amorphous form of Selinexor, (Z)-3-(3-(3,5-bis(trifluoromethyl)phenyl)-IH—I,2,4-triazol-1-yl)-N′-(pyrazin-2yl) acrylohydrazide], the “stability under hygroscopic conditions” value [1] was “stable” and the “stability under mechanical stress” value [2] was “highly stable”.
